Results published in US10329295B2, “Pyrrolotriazine inhibitors of IRAK4 activity” (MERCK SHARP & DOHME CORP., priority 2015, dated 2019).
Where a name gives a salt, the structure may show the parent alone.

What follows are compounds tested against GST tagged IRAK4 (Homo sapiens (Human), UniProt Q9NWZ3) (assay: IRAK4 Kinase Assay (IMAP fluorescence polarization)). Settings: 0.5 nM GST tagged IRAK4, 100 μM ATP, 30 minutes at 25° C.
Type: biochemical
Procedure: The kinase activity of IRAK4 is determined by its ability to catalyze the phosphorylation of a fluorescent polypeptide substrate. The extent of phosphorylation is measured using the IMAP technology (Molecular Devices) where the phosphorylated fluorescent substrate binds to the large M(III)-based nanoparticles which reduces the rotational speed of the substrate and thus increases its fluorescent polarization (FP).
20 μL reaction mixture contains 10 mM TriHCl, pH 7.2, 0.5 nM GST tagged IRAK4 (SignalChem), 100 nM fluorescent peptide substrate (RP7030, Molecular Devices), 100 μM ATP, 1 mM DDT, 1 mM MgCl2, and 0.01% Tween 20. The reaction is initiated by the addition of ATP. After incubation for 30 minutes at 25° C., 60 μL of Progressive IMAP Reagent (Molecular Devices) is added to stop the reaction. Change in RP7030's FP is determined by a FP reader (Analyst HT, LJL BioSystems).

GST tagged IRAK4, sequence (Q9NWZ3 whole entry): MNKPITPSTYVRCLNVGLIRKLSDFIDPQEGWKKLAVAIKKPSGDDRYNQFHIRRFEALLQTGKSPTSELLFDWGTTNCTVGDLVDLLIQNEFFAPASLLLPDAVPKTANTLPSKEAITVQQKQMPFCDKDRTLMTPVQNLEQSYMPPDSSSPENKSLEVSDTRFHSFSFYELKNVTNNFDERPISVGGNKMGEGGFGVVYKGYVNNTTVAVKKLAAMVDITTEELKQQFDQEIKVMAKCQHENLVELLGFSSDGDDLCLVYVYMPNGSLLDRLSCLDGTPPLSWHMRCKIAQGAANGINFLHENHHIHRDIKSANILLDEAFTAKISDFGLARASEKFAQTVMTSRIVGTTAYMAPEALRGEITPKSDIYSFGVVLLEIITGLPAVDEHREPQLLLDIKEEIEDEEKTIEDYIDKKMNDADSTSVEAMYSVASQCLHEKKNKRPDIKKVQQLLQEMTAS

| SMILES | IC50 [nM] |
| --- | --- |
| O=C(Nc1ccccc1Br)c1ccc2cnc(N3C[C@@H]4CC[C@H]3CN4)nn12 (single isomer, unassigned) [Example 84, N-(2-bromophenyl)-2-[(1S,4S)- or (1R,4R)-2,5-diazabicyclo[2.2.2]oct-2-yl]pyrrolo[2,1-f][1,2,4]triazine-7-carboxamide trifluoroacetate] | 7810 |
| O=C(Nc1ccsc1C(F)(F)F)c1ccc2cnc(N3C[C@@H]4CC[C@H]3CN4)nn12 (single isomer, unassigned) [Example 86, 2-[(1S,4S)- or (1R,4R)-2,5-diazabicyclo[2.2.2]oct-2-yl]-N-[2-(trifluoromethyl)thiophen-3-yl]pyrrolo[2,1-f][1,2,4]triazine-7-carboxamide trifluoroacetate] | 2270 |
| O=C(Nc1ccsc1C(F)(F)F)c1ccc2cnc(N3C[C@H]4CC[C@@H]3CN4)nn12 (single isomer, unassigned) [Example 87, 2-[(1S,4S)- or (1R,4R)-2,5-diazabicyclo[2.2.2]oct-2-yl]-N-[2-(trifluoromethyl)thiophen-3-yl]pyrrolo[2,1-f][1,2,4]triazine-7-carboxamide trifluoroacetate] | 1440 |
| Cn1cc(NC(=O)c2ccc3cnc(N[C@@H]4CCCCNC4)nn23)c(C(F)F)n1 (single isomer, unassigned) [Example 90, 2-[(3S)- or (3R)-azepan-3-ylamino]-N-[3-(difluoromethyl)-1-methyl-1H-pyrazol-4-yl]pyrrolo[2,1-f][1,2,4]triazine-7-carboxamide trifluoroacetate] | 0.7 |
| Cn1cc(NC(=O)c2ccc3cnc(N[C@H]4CCCCNC4)nn23)c(C(F)F)n1 (single isomer, unassigned) [Example 91, 2-[(3S)- or (3R)-azepan-3-ylamino]-N-[3-(difluoromethyl)-1-methyl-1H-pyrazol-4-yl]pyrrolo[2,1-f][1,2,4]triazine-7-carboxamide trifluoroacetate] | 1 |
| Cn1cc(NC(=O)c2ccc3cnc(N4C[C@@H]5CN[C@@H](C5)C4)nn23)c(C(F)F)n1 (single isomer, unassigned) [Example 103, 2-[(1S,5S)- or (1R,5R)-3,6-diazabicyclo[3.2.1]oct-3-yl]-N-[3-(difluoromethyl)-1-methyl-1H-pyrazol-4-yl]pyrrolo[2,1-f][1,2,4]triazine-7-carboxamide] | 10 |
| Cn1cc(NC(=O)c2ccc3cnc(N4C[C@H]5CN[C@H](C5)C4)nn23)c(C(F)F)n1 (single isomer, unassigned) [Example 104, 2-[(1S,5S)- or (1R,5R)-3,6-diazabicyclo[3.2.1]oct-3-yl]-N-[3-(difluoromethyl)-1-methyl-1H-pyrazol-4-yl]pyrrolo[2,1-f][1,2,4]triazine-7-carboxamide] | 28 |
| O=C(Nc1cscc1Cl)c1ccc2cnc(N3C[C@@H]4CC[C@H]3CN4)nn12 (single isomer, unassigned) [Example 107, N-(4-chlorothiophen-3-yl)-2-[(1S,4S)- or (1R,4R)-2,5-diazabicyclo[2.2.2]oct-2-yl]pyrrolo[2,1-f][1,2,4]triazine-7-carboxamide trifluoroacetate] | 368 |
| O=C(Nc1cscc1Cl)c1ccc2cnc(N3C[C@H]4CC[C@@H]3CN4)nn12 (single isomer, unassigned) [Example 108, N-(4-chlorothiophen-3-yl)-2-[(1S,4S)- or (1R,4R)-2,5-diazabicyclo[2.2.2]oct-2-yl]pyrrolo[2,1-f][1,2,4]triazine-7-carboxamide trifluoroacetate] | 198 |
| Cn1cc(NC(=O)c2ccc3cnc(N4C[C@@H]5CN[C@@H](C5)C4)nn23)c(C#N)n1 (single isomer, unassigned) [Example 113, N-(3-cyano-1-methyl-1H-pyrazol-4-yl)-2-[(1S,5S)- or (1R,5R)-3,6-diazabicyclo[3.2.1]oct-3-yl]pyrrolo[2,1-f][1,2,4]triazine-7-carboxamide] | 85 |
| Cn1cc(NC(=O)c2ccc3cnc(N4C[C@H]5CN[C@H](C5)C4)nn23)c(C#N)n1 (single isomer, unassigned) [Example 114, N-(3-cyano-1-methyl-1H-pyrazol-4-yl)-2-[(1S,5S)- or (1R,5R)-3,6-diazabicyclo[3.2.1]oct-3-yl]pyrrolo[2,1-f][1,2,4]triazine-7-carboxamide] | 390 |
| Cn1cc(NC(=O)c2ccc3cnc(N4C[C@@H]5CNC[C@H]4C5)nn23)c(C(F)F)n1 (single isomer, unassigned) [Example 119, 2-[(1S,5R)- or (1R,5S)-3,6-diazabicyclo[3.2.1]oct-6-yl]-N-[3-(difluoromethyl)-1-methyl-1H-pyrazol-4-yl]pyrrolo[2,1-f][1,2,4]triazine-7-carboxamide] | 2 |
| Cn1cc(NC(=O)c2ccc3cnc(N4C[C@H]5CNC[C@@H]4C5)nn23)c(C(F)F)n1 (single isomer, unassigned) [Example 120, 2-[(1S,5R)- or (1R,5S)-3,6-diazabicyclo[3.2.1]oct-6-yl]-N-[3-(difluoromethyl)-1-methyl-1H-pyrazol-4-yl]pyrrolo[2,1-f][1,2,4]triazine-7-carboxamide] | 15 |

Other lines, results leading:

| IC50 [nM] | SMILES |
| --- | --- |
| 64 | Cn1cc(NC(=O)c2ccc3cnc(N4C[C@@H]5CN[C@@H](C5)C4)nn23)c(C(F)(F)F)n1 (single isomer, unassigned) [Example 100, 2-[(1S,5S)- or (1R,5R)-3,6-diazabicyclo[3.2.1]oct-3-yl]-N-[1-methyl-3-(trifluoromethyl)-1H-pyrazol-4-yl]pyrrolo[2,1-f][1,2,4]triazine-7-carboxamide] |
| 277 | Cn1cc(NC(=O)c2ccc3cnc(N4C[C@H]5CN[C@H](C5)C4)nn23)c(C(F)(F)F)n1 (single isomer, unassigned) [Example 101, 2-[(1S,5S)- or (1R,5R)-3,6-diazabicyclo[3.2.1]oct-3-yl]-N-[1-methyl-3-(trifluoromethyl)-1H-pyrazol-4-yl]pyrrolo[2,1-f][1,2,4]triazine-7-carboxamide] |
| 45 | Cn1cc(NC(=O)c2ccc3cnc(N4C[C@@H]5CNC[C@H]4C5)nn23)c(C(F)(F)F)n1 (single isomer, unassigned) [Example 116, 2-[(1S,5R)- or (1R,5S)-3,6-diazabicyclo[3.2.1]oct-6-yl]-N-[1-methyl-3-(trifluoromethyl)-1H-pyrazol-4-yl]pyrrolo[2,1-f][1,2,4]triazine-7-carboxamide] |
| 145 | Cn1cc(NC(=O)c2ccc3cnc(N4C[C@H]5CNC[C@@H]4C5)nn23)c(C(F)(F)F)n1 (single isomer, unassigned) [Example 117, 2-[(1S,5R)- or (1R,5S)-3,6-diazabicyclo[3.2.1]oct-6-yl]-N-[1-methyl-3-(trifluoromethyl)-1H-pyrazol-4-yl]pyrrolo[2,1-f][1,2,4]triazine-7-carboxamide] |
| 17 | Cn1cc(NC(=O)c2ccc3cnc(N[C@H]4CC(F)(F)CC[C@H]4N)nn23)c(C(F)(F)F)n1 (single isomer, unassigned) [Example 127, 2-{[(1S,2R)- or (1R,2S)-2-amino-5,5-difluorocyclohexyl]amino}-N-[1-methyl-3-(trifluoromethyl)-1H-pyrazol-4-yl]pyrrolo[2,1-f][1,2,4]triazine-7-carboxamide trifluoroacetate] |
| 46 | Cn1cc(NC(=O)c2ccc3cnc(N[C@H]4CCC(F)(F)C[C@H]4N)nn23)c(C(F)(F)F)n1 (single isomer, unassigned) [Example 128, 2-{[(1S,2R)- or (1R,2S)-2-amino-4,4-difluorocyclohexyl]amino}-N-[1-methyl-3-(trifluoromethyl)-1H-pyrazol-4-yl]pyrrolo[2,1-f][1,2,4]triazine-7-carboxamide trifluoroacetate] |
| 3650 | Cn1cc(NC(=O)c2ccc3cnc(N[C@H]4CCC(F)(F)C[C@H]4N)nn23)c(C(F)F)n1 (single isomer, unassigned) [Example 129, 2-{[(1S,2R)- or (1R,2S)-2-amino-4,4-difluorocyclohexyl]amino}-N-[3-(difluoromethyl)-1-methyl-1H-pyrazol-4-yl]pyrrolo[2,1-f][1,2,4]triazine-7-carboxamide] |
| 668 | Cn1cc(NC(=O)c2ccc3cnc(N[C@H]4CC(F)(F)CC[C@H]4N)nn23)c(C(F)F)n1 (single isomer, unassigned) [Example 130, 2-{[(1S,2R)- or (1R,2S)-2-amino-5,5-difluorocyclohexyl]amino}-N-[3-(difluoromethyl)-1-methyl-1H-pyrazol-4-yl]pyrrolo[2,1-f][1,2,4]triazine-7-carboxamide] |
| 4 | Cn1cc(NC(=O)c2ccc3cnc(N[C@@H]4CC(F)(F)CC[C@@H]4N)nn23)c(C(F)(F)F)n1 (single isomer, unassigned) [Example 131, 2-{[(1S,2R)- or (1R,2S)-2-amino-5,5-difluorocyclohexyl]amino}-N-[1-methyl-3-(trifluoromethyl)-1H-pyrazol-4-yl]pyrrolo[2,1-f][1,2,4]triazine-7-carboxamide trifluoroacetate] |
| 655 | Cn1cc(NC(=O)c2ccc3cnc(N[C@@H]4CCC(F)(F)C[C@@H]4N)nn23)c(C(F)(F)F)n1 (single isomer, unassigned) [Example 132, 2-{[(1S,2R)- or (1R,2S)-2-amino-4,4-difluorocyclohexyl]amino}-N-[1-methyl-3-(trifluoromethyl)-1H-pyrazol-4-yl]pyrrolo[2,1-f][1,2,4]triazine-7-carboxamide trifluoroacetate] |
